From ChEMBL document CHEMBL6074701, “Pyridazine Compounds as NLRP3 Inhibitors for Treating Parkinson's Disease or Frontotemporal Dementia” (ACS Med Chem Lett, 2024) come the findings set out here.

Where only a bound is given, the exact number is not on record here.

This assay in a line: Inhibition of NLRP3 inflammasome activation in human THP-1 cells assessed as reduction in LPS induced IL-1beta level preincubated with LPS for 3 hrs followed by compound addition and measured after 2 hrs in presence of nigericin by HTRF analysis. It is filed as cell-based. Background: In TR-FRET formats the signal depends on donor and acceptor labels being close together.

As for `CCN1CC[C@@H]2CCN(c3cc(C)c(-c4ccc(C)cc4O)nn3)[C@@H]2C1`, the IC50 was less than 300 pM.

As to `CCN1CC[C@H]2CCN(c3cc(C)c(-c4ccc(C)cc4O)nn3)[C@H]2C1`, the 50% inhibitory concentration (IC50) is less than 300 pM.

As to `CN1CC[C@H]2CCN(c3cc(C(F)F)c(-c4ccc(Cl)cc4O)nn3)[C@H]2C1`, the half-inhibitory concentration (IC50) is less than 300 pM.

For the compound `Cc1cc(N2CCO[C@H]3CCN(C)C[C@H]32)nnc1-c1ccc(C(F)(F)F)cc1O`, the IC50 is less than 300 pM.

As to `CCN1CC[C@H]2CCN(c3ccc(-c4ccc(C(F)(F)F)cc4O)nn3)[C@H]2C1`, the IC50 is less than 300 pM.

As to `CCc1cc(C)cc(O)c1-c1ccc(N2CC[C@@H]3CCN(C)C[C@@H]32)nn1`, the IC50 is less than 300 pM.

What is called IC50 is the point on the concentration scale where inhibition reaches its midpoint.
